From EP0496617B1, “Adenosine kinase inhibitors” (priority 1991, dated 1992)
Read-outs that look alike come from different tables or passages of the source.

Columns and labels:
rat cardiomyocytes = conditions: inhibition of adenosine deaminase alone; cited from earlier work
[1] = tested on: human umbillical vein endothelial cells; assay: Inhibition of neutrophil adherence to endothelial cells; assay type: cell-based; conditions: fMLP-stimulated human neutrophils, 2 hours at 37°C; reversed by adenosine deaminase; Figure 2
Description: The ability of an adenosine kinase inhibitor to affect neutrophil adherence to fibroblasts and endothelial cells was evaluated in a cell culture model.
These incubations were carried out in the presence of fMLP-stimulated human neutrophils isolated from whole blood (1.25 x 10^6/ml) with or without adenosine deaminase (0.125 U/ml). At the end of the incubation, the medium was removed and the monolayers of fibroblasts or endothelial cells and adherent neutrophils were fixed by addition of formaldehyde (3.7%) and, after washing to remove non-adherent neutrophils, adherent neutrophils were stained with Weigart's hematoxylin and counted under a light microscope.

Anesthetized male dogs = assay: Preclinical model of stable angina (pacing-induced ischemia); assay type: in vivo
Description: GP-1-515, was evaluated for its ability to prevent cumulative cardiac dysfunction associated with repeated episodes of pacing-induced ischemia.
Anesthetized male dogs were instrumented to measure regional myocardial wall thickening during right atrial pacing (Young & Mullane, Am. J. Physio., 1991, 261:1570-1577). Animals were subjected to six repeated episodes of pacing. A continuous IV infusion of […] of GP-1-515 or saline (control) -was administered post pace #1. […] TABLE B

guinea pig ileum = assay: Inhibition of contraction in isolated ileum; conditions: electrically stimulated; reversal by 8SPT and ADA; Figure 3
Description: The ability of adenosine kinase inhibition to affect stimulated contraction of muscle strips from the isolated ileum has been investigated.
Parallel platinum electrodes were used to deliver electrical current at 1 minute intervals at a voltage adequate to induce contraction of 90% of maximal. The adenosine kinase inhibitors, GP-1-515 or GP-1-547 were added to the tissue baths at different concentrations, with or without either the adenosine receptor antagonist, 8-sulphophenyltheophylline (8SPT) or adenosine deaminase (ADA), and the effects on contraction monitored.

[2] = tested on: Isolated guinea pig hearts; assay: Functional recovery in isolated hearts after low flow ischemia (Langendorff); conditions: Conc. 0.3 ( M) in perfusion buffer; for Functional Recovery (% preischemic LVDP): 45 minutes low flow ischemia, 30 minutes reperfusion
Description: The ability of a number of adenosine kinase inhibitors to improve the recovery of post-ischemic function was examined in an isolated guinea pig heart model.
Isolated guinea pig hearts were cannulated via the ascending aorta and attached to a perfusion apparatus according to the method of Langendorff. The hearts were perfused at a constant pressure of 60 cm of H2O with a modified Krebs-Hanseleit buffer (pH 7.4) at 37°C. Left ventricular developed pressures (LVDP) were monitored continuously using a latex balloon attached to a pressure transducer. Coronary flows were measured gravimetrically by timed collection of pulmonary effluent. Following equilibration of the hearts for a period of 30 minutes, the hearts were subjected to 45 minutes of low flow ischemia, by reducing the perfusion pressure to 10 cm of H2O, and then reperfused for 30 minutes by restoring the pressure to its. original level (60 cm of H2O). The adenosine kinase inhibitors GP-1-238, GP-1-515 and GP1-547 were added to the perfusion buffer at the final concentrations specified. […] TABLE A

[3] = tested on: platelet-induced coronary thrombosis; assay: Canine model of platelet-induced coronary thrombosis (Folts, cyclic flow reductions); assay type: in vivo
Description: GP-1-515 was tested in a canine model of platelet-induced coronary thrombosis (Folts, J., Circulation, 1991, 83[Suppl. IV]:IV-3-IV-14). In this model, platelets cyclically aggregate and embolize causing cyclic flow reductions (CFRs) that are quantitated by the frequency and the change in coronary blood flow from low point to peak with each cycle. […] TABLE C

adenosine kinase = adenosine kinase (Bos taurus, UniProt A0AAA9TET8); assay: Adenosine kinase inhibition in intact cells; assay type: cell-based
Sequence of adenosine kinase (A0AAA9TET8 1-345): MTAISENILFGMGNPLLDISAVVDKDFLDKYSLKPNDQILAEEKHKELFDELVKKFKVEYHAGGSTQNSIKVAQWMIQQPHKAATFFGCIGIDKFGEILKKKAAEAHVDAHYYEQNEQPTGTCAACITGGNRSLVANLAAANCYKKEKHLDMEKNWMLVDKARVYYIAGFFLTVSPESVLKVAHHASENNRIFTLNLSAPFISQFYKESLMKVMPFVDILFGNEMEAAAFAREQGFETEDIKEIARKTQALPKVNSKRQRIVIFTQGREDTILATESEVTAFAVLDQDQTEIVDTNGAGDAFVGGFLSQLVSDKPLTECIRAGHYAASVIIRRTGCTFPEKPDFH
Description: Inhibition of adenosine kinase in intact cells was determined from the amount of incorporation of radioisotope from adenosine into the adenylates (AMP, ADP and ATP) in the presence of adenosine deaminase inhibition. Capillary endothelial cells from bovine heart were incubated for 60 min. With 20 µM 2'-deoxycoformycin, a potent adenosine deaminase inhibitor. Different concentrations of the test compounds were then added to the cells and incubated for 15 min. after which 5 µM [^3H]adenosine was added and the cells incubated for a further 15 min. The media was then discarded and the cells were treated with 50 µl 0.4 M perchloric acid, centrifuged and the supernatants neutralized with 100 µl alanine: freon (1:4). Radiosotope-labelled adenylates were separated by TLC on PEI cellulose plates developed in methanol:water (1:1) and incorporation of ^3H determined by scintillation counting.

[4] = molecular target: T1, calf intestinal mucosa adenosine deaminase (Bos taurus, UniProt P56658); assay: Inhibition of adenosine deaminase activity; assay type: biochemical; conditions: 10 min at 37°C
T1 construct: 0.002 units of calf intestinal mucosa adenosine deaminase; from tissue; host or cells: calf intestinal mucosa
T1 sequence (P56658 1-363): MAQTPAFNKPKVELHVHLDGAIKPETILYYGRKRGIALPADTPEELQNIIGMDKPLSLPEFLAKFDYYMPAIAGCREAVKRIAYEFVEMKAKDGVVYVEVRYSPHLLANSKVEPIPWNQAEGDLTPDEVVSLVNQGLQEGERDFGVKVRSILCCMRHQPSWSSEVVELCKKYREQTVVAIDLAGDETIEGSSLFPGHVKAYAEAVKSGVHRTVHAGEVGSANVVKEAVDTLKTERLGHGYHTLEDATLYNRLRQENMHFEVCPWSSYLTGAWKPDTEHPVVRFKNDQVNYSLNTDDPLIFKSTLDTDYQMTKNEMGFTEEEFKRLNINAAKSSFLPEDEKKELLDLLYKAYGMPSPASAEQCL
Description: Different concentrations of the test compounds were incubated in the assay mixture for 10 min at 37°C. The reaction was monitored continuously for oxidation of NADH from the change in absorbance at 340nm.

A1 receptor = molecular target: T2, A1 receptor (Homo sapiens, UniProt P30542); assay: A1 receptor binding affinity ([3H]CHA, neuronal membrane); conditions: 1 nM [3H]CHA, 60 min at 37°C
T2 construct: 1 nM [^3H]CHA and 0.5 mg of neuronal membrane; from tissue
T2 sequence (P30542 1-326): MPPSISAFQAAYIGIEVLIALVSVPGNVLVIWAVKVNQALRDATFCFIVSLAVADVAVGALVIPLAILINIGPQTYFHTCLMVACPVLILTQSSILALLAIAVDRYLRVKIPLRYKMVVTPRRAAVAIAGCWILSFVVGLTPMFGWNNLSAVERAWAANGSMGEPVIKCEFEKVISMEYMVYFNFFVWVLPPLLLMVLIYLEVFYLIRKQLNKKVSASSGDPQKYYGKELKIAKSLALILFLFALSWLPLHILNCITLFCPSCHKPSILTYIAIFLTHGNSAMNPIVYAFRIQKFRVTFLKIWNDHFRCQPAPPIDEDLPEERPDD
Description: The reaction was stopped and unbound [^3H]CHA removed by rapid filtration through Whatman GF/B filters. The filter papers were then solubilized and bound [^3H]CHA determined by scintillation counting.

[5] = molecular target: purified pig heart adenosine kinase (Sus scrofa, UniProt A0A5G2R0F5); assay: Inhibition of adenosine kinase activity; assay type: biochemical
Sequence of purified pig heart adenosine kinase (A0A5G2R0F5 1-362): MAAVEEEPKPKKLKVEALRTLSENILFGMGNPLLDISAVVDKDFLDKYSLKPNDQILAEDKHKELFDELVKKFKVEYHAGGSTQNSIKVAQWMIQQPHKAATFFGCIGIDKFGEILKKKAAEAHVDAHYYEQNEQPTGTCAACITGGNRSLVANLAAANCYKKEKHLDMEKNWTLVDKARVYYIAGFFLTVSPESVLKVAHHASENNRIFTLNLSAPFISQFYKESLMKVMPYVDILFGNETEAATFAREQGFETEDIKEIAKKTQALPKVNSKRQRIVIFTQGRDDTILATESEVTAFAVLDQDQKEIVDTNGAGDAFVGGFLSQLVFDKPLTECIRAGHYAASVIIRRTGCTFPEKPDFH
Description: Inhibition of enzyme activity was determined using a 0.1 ml assay mixture containing 50 mM Tris-maleate, pH 7.0, 0.1% (w/v) BSA, 1 mM ATP, 1 mM MgCl2, 0.5 µM [U-^14C] adenosine (500 mCi/mmol) and 0.1 µg of purified pig heart adenosine kinase. Different concentrations of the test compounds were incubated in the assay mixture for 20 min at 37°C. From each reaction mixture, 20 µl portions were removed and spotted on 2 cm^2 pieces of Whatman DE81 filter paper. The papers were then washed to remove [^14C] adenosine in 1mM ammonium formate followed by deionized water and finally 95% ethanol. The papers were dried, and [^14C]AMP measured by scintillation counting. Activities were determined from the amount of [^14C]AMP formed. This is a suitable in vitro test method for determining adenosine kinase enzyme inhibition activity.

[6] = in human blood; cited from earlier work
[7] = read-out: IC50 in the adenosine kinase inhibition assay

SMILES: OC[C@H]1O[C@@H](n2cnc3c2N=CNC[C@H]3O)C[C@@H]1O [2'-deoxycoformycin]
- adenosine release from the cells (rat cardiomyocytes): no effect on adenosine release

SMILES: CNc1ncnc2c1ncn2[C@@H]1O[C@H](CN)[C@@H](O)[C@H]1O [GP-1-272]
- neutrophil adhesion to endothelial cells [1]: inhibit neutrophil adhesion to endothelial cells

SMILES: NC[C@H]1O[C@@H](n2nc(Br)c3c(N)ncnc32)[C@H](O)[C@@H]1O [GP-1-515]
- % of Non-Ischemic Wall Thickening (Anesthetized male dogs; Pace # 1 (infusion started post pace #1)): 39.8 ± 3.2%
- % of Non-Ischemic Wall Thickening (Anesthetized male dogs; Pace # 2, continuous IV infusion of 1 g/kg/min): 43.6 ± 12.0%
- % of Non-Ischemic Wall Thickening (Anesthetized male dogs; Pace # 3, continuous IV infusion of 1 g/kg/min): 34.0 ± 19.0%
- % of Non-Ischemic Wall Thickening (Anesthetized male dogs; Pace # 4, continuous IV infusion of 1 g/kg/min): 50.5 ± 21.3%
- % of Non-Ischemic Wall Thickening (Anesthetized male dogs; Pace # 5, continuous IV infusion of 1 g/kg/min): 75.6 ± 19.4%
- % of Non-Ischemic Wall Thickening (Anesthetized male dogs; Pace # 6, continuous IV infusion of 1 g/kg/min): 62.6 ± 17.1%
- contraction of longitudinal muscle of the ileum (guinea pig ileum): Inhibition of contraction
- Preischemic Flow [2]: 6.5 ± 0.3 mL/min/g
- Functional Recovery (% preischemic LVDP) [2]: 79.0 ± 3.4 % preischemic LVDP
- (N abolished)/(N total) ([3]; 0.03 (dose, unit not given)): 1/8
- CFR (D flow) ([3]; 0.03 (dose, unit not given)): 10.1 ± 2.6 (n=7)
- CFR (freq.) ([3]; 0.03 (dose, unit not given)): 3.0 ± 0.6 (n=7)
- (N abolished)/(N total) ([3]; 0.1 (dose, unit not given)): 3/8
- CFR (D flow) ([3]; 0.1 (dose, unit not given)): 11.0 ± 2.1 (n=5)
- CFR (freq.) ([3]; 0.1 (dose, unit not given)): 3.4 ± 0.8 (n=5)
- (N abolished)/(N total) ([3]; 0.3 (dose, unit not given)): 3/8
- CFR (D flow) ([3]; 0.3 (dose, unit not given)): 14.1 ± 1.9 (n=5)
- CFR (freq.) ([3]; 0.3 (dose, unit not given)): 4.2 ± 0.6 (n=5)
- CFRs abolished (animals) ([3]; summary): 3 of 8
- IC50 (adenosine kinase; Capillary endothelial cells from bovine heart, 20 µM 2'-deoxycoformycin; read-out: IC50 in the adenosine kinase inhibition assay in intact cells): 0.009 µM
- IC50 [4]: > 1000 µM
- IC50 (A1 receptor): > 100 µM
- IC50 [5]: < 0.01 µM

SMILES: NC[C@H]1O[C@@H](n2nc(I)c3c(N)ncnc32)[C@H](O)[C@@H]1O [GP-1-547]
- contraction of longitudinal muscle of the ileum (guinea pig ileum): Inhibition of contraction
- Preischemic Flow [2]: 6.2 ± 0.3 mL/min/g
- Functional Recovery (% preischemic LVDP) [2]: 79.0 ± 3.1 % preischemic LVDP

SMILES: NC[C@H]1O[C@@H](n2cc(Br)c3c(Cl)ncnc32)[C@H](O)[C@@H]1O [GP-1-608, 7-(5-Amino-5-deoxy-1-β-D-ribofuranosyl)-5-bromo-4-chloropyrrolo [2,3-d]pyrimidine]
- IC50 [5, 7]: < 0.01 µM

SMILES: C[C@H]1O[C@@H](n2nc(-c3ccccc3)c3c(Nc4ccccc4)ncnc32)[C@H](O)[C@@H]1O [GP-1-665]
- IC50 (adenosine kinase; read-out: IC50 in the adenosine kinase inhibition assay in intact cells; Capillary endothelial cells from bovine heart, 20 µM 2'-deoxycoformycin): 0.0045 µM
- IC50 [5, 7]: < 0.01 µM

SMILES: [N-]=[N+]=NC[C@H]1O[C@@H](n2nc(-c3ccccc3)c3c(Nc4ccccc4)ncnc32)[C@H](O)[C@@H]1O [GP-1-667]
- IC50 [5, 7]: < 0.01 µM

SMILES: OC[C@H]1O[C@@H](n2nc(-c3ccccc3)c3c(Nc4ccccc4)ncnc32)[C@H](O)[C@@H]1O [GP-1-695]
- IC50 [5, 7]: < 0.01 µM

SMILES: NC[C@H]1O[C@@H](n2nc(-c3ccccc3)c3c(Nc4ccccc4)ncnc32)[C@H](O)[C@@H]1O [GP-1-704]
- IC50 [5, 7]: < 0.01 µM

SMILES: Nc1ncnc2c1ncn2[C@@H]1O[C@H](CO)[C@@H](O)[C@H]1O [adenosine]
- half life [6]: < 1 s
